Publication PMC5045383 (Oncotarget, 2016)

Columns and labels:
MOLM-13 (FLT3-ITD/wt) = experiment: Cell proliferation assay (CellTiter-Glo); format: cell-based, human
Protocol: (§1) The human AML cell lines MV4-11, U937, OCI-AML-3 were purchased from the American Type Culture Collection (ATCC) (Manassas, VA, USA). The FLT3-ITD-expressing lines, MOLM-13, MOLM-14, were provided by Dr. Scott Armstrong, Dana Farber Cancer Institute (DFCI), Boston, MA. The wt FLT3-expressing AML line, NB4 (KRAS A18D), was obtained from Dr. Gary Gilliland. […] MV4-11 was cultured in IDMEM media (Corning, USA) with 10% FBS and supplemented with 2% L-glutamine and 1% penicillin/streptomycin. OCI-AML-3 was cultured in α-MEM media (Corning, USA) with 10% FBS and supplemented with 2% L-glutamine and 1% penicillin/streptomycin. All cell lines were maintained in culture media at 37°C with 5% CO2.
(§2) Cells were grown in 96-well culture plates (3000/well). […] Cell proliferation was determined after 72 hours drug treatment. […] Cell viability was measured with the CellTiter–Glo assay (Promega, USA), according to the manufacturer's instructions, and luminescence was measured in a multi-label reader (Envision, PerkinElmer, USA). […] GI50 values were calculated using Prism 5.0 (GraphPad Software, San Diego, CA).

MOLM-14 (FLT3-ITD/wt) = experiment: Cell proliferation assay (CellTiter-Glo); format: cell-based, human
Protocol: as §1, §2

MV4-11 (FLT3-ITD) = experiment: Cell proliferation assay (CellTiter-Glo); format: cell-based, human
Protocol: as §1, §2

NB4 (FLT3-wt) = experiment: Cell proliferation assay (CellTiter-Glo); format: cell-based, human; conditions: 72 hours
Protocol: as §1, §2

OCI-AML-3 (FLT3-wt) = experiment: Cell proliferation assay (CellTiter-Glo); format: cell-based, human; conditions: 72 hours
Protocol: as §1, §2

U937 (FLT3-wt) = experiment: Cell proliferation assay (CellTiter-Glo); format: cell-based, human
Protocol: as §1, §2

HL-60 (FLT3-wt) = experiment: Cell proliferation assay (CellTiter-Glo); format: cell-based, human; conditions: 72 hours
Protocol: as §2

SKM-1 (FLT3-wt) = experiment: Cell proliferation assay (CellTiter-Glo); format: cell-based, human; conditions: 72 hours
Protocol: as §2

PF-382 (FLT3-wt) = experiment: cells; format: cell-based; conditions: 72 hours
Protocol: as §2

MOLM-13 = experiment: Combination study TCS359 + MK2206; format: cell-based, human; conditions: TCS359 0.12 μM, MK2206 0.36 μM, alone or combined, 72 hours
Protocol: (§3) The FLT3-ITD-expressing lines MOLM-13, MOLM14 and MV4-11 were grown in 96-well culture plates (3000/well), respectively. Combination treatment with the FLT3 kinase inhibitor, TCS359, and with the Akt inhibitor, MK2206, was performed. Cell proliferation was determined after treatment with compounds for 72 hours. Cell viability was measured using the CellTiter–Glo assay (Promega, USA), data were normalized to control groups (DMSO) and represented by the mean of three independent measurements with standard error < 20%. CI index was calculated by Calcusyn software (Biosoft, version 2.1), using the Chou-Talalay method.

MOLM-14 = experiment: Combination study TCS359 + MK2206; format: cell-based, human; conditions: TCS359 3.3 μM, MK2206 0.12 μM, alone or combined, 72 hours
Protocol: as §3

MV4-11 [1] = experiment: Combination study TCS359 + MK2206; format: cell-based, human; conditions: TCS359 0.12 μM, MK2206 0.12 μM, alone or combined, 72 hours
Protocol: as §3

MOLM14 = experiment: Cell cycle analysis (PI, flow cytometry); format: cell-based, human; conditions: MOLM14, 1 μM, 24 hours
Protocol: (§4) The cells were fixed in 70% cold ethanol and incubated at −20°C overnight, then stained with PI/RNase staining buffer (BD Pharmingen). Flow cytometry was performed using a FACS Calibur (BD), and results were analyzed by ModFit software.

MV4-11 [2] = experiment: Cell cycle analysis (PI, flow cytometry); format: cell-based, human; conditions: MV4-11, 1 μM, 24 hours
Protocol: as §4

MOLM14, MV4-11 cells = experiment: Apoptosis effect examination (PARP, Caspase-3 immunoblot); format: cell-based, human; conditions: at 1 μM, 24 hours
Source text: Cells were then washed in PBS and lysed in cell lysis buffer. PARP, Caspase-3, GAPDH antibodies (Cell signaling Technology) were used for immunoblotting.

[3] = tested on: FLT3-ITD/FLT3 wt-expressing MOLM13 and MOLM14 cells
Protocol: as §2

[4] = tested on: FLT3-ITD mediated signaling in MOLM14 and MV4-11 cell lines; experiment: Signaling pathway effect examination (immunoblot); format: cell-based, human; conditions: 1 μM, 4 hours
Source text: Cells were then washed in PBS and lysed in cell lysis buffer. FLT3, Phospho-FLT3 (Tyr589/591), AKT, Phospho-AKT Ser473, Phospho-AKT Thr308, GSK-3β, Phospho-GSK-3β (Ser9), Phospho-FoxO1 (Thr24), FoxO1, PRAS40, Phospho-PRAS40 (Thr246), STAT5, Phospho-STAT5 (Tyr694), NF-ΚB-P65, Phospho-NF-ΚB-P65 (Ser536), P70S6K, Phospho-P70S6K Thr389, 4EBP1, Phospho-4EBP1 (Thr37/46), ERK, Phospho-p44/42MAPK (Erk1/2) (Thr202/Tyr204), C-Myc and GAPDH antibodies (Cell Signaling Technology) were used for immunoblotting.

[5] = MOLM-13 (FLT3-ITD/wt), 72 hours, Table 1
[6] = MV4-11 (FLT3-ITD), 72 hours, Table 1
[7] = Homo sapiens, MOLM-13 (FLT3-ITD/wt), 72 hours, Table 1
[8] = Homo sapiens, MOLM-14 (FLT3-ITD/wt), 72 hours, Table 1
[9] = Homo sapiens, MV4-11 (FLT3-ITD), 72 hours, Table 1
[10] = Homo sapiens, read-out: Relative activity(%)

COc1ccc(C(=O)Nc2sc3c(c2C(N)=O)CCCC3)cc1OC [TCS359]
GI50 (MOLM-13 (FLT3-ITD/wt); [5]): 560 nM | GI50 (MOLM-13 (FLT3-ITD/wt); MOLM-13+FL(1 ng/mL)): > 10000 nM | GI50 (MOLM-13 (FLT3-ITD/wt); MOLM-13+FL(5 ng/mL)): > 10000 nM | GI50 (MOLM-13 (FLT3-ITD/wt); MOLM-13+FL(10 ng/mL)): > 10000 nM | GI50 (MOLM-13 (FLT3-ITD/wt); MOLM-13, no FLT3 ligand, Table 3): 420 nM | GI50 (MOLM-14 (FLT3-ITD/wt); MOLM-14+FL(1 ng/mL)): > 10000 nM | GI50 (MOLM-14 (FLT3-ITD/wt); MOLM-14+FL(5 ng/mL)): > 10000 nM | GI50 (MOLM-14 (FLT3-ITD/wt); MOLM-14+FL(10 ng/mL)): > 10000 nM | GI50 (MV4-11 (FLT3-ITD); [6]): 680 nM | GI50 (MV4-11 (FLT3-ITD); MV4-11+FL(10 ng/mL)): 1400 nM | GI50 (MV4-11 (FLT3-ITD); MV4-11, no FLT3 ligand, Table 3): 490 nM | GI50 (NB4 (FLT3-wt)): > 10000 nM | GI50 (OCI-AML-3 (FLT3-wt)): > 10000 nM | GI50 (U937 (FLT3-wt); 72 hours): > 10000 nM | GI50 (HL-60 (FLT3-wt)): 540 nM | GI50 (SKM-1 (FLT3-wt)): > 10000 nM | GI50 (PF-382 (FLT3-wt)): > 10000 nM | Relative activity(%) (MOLM-13): 69.7% | Relative activity(%) (MOLM-14): 68.4% | Relative activity(%) (MV4-11 [1]): 98.9% | %G0–G1 (MOLM14): 55.04% | %G2–M (MOLM14): 9.08% | %S (MOLM14): 35.88% | %G0–G1 (MV4-11 [2]): 73.62% | %G2–M (MV4-11 [2]): 2.57% | %S (MV4-11 [2]): 23.81% | apoptosis induction (MOLM14, MV4-11 cells): did not induce apoptosis | fold loss of activity with FLT3 ligand stimulation [3]: 6-15 fold

CCn1c(-c2nonc2N)nc2c(C#CC(C)(C)O)ncc(OC[C@H]3CCCNC3)c21 [GSK690693]
GI50 (MOLM-13 (FLT3-ITD/wt); [7]): 280 nM | GI50 (MOLM-14 (FLT3-ITD/wt); [8]): 540 nM | GI50 (MV4-11 (FLT3-ITD); [9]): 5200 nM | GI50 (NB4 (FLT3-wt); Homo sapiens): 220 nM | GI50 (OCI-AML-3 (FLT3-wt); Homo sapiens): > 10000 nM | GI50 (U937 (FLT3-wt); Homo sapiens, U-937, 72 hours): 5100 nM | GI50 (HL-60 (FLT3-wt); Homo sapiens): 160 nM | GI50 (SKM-1 (FLT3-wt); Homo sapiens): > 10000 nM | GI50 (PF-382 (FLT3-wt); Homo sapiens): 240 nM | %G0–G1 (MOLM14): 54.52% | %G2–M (MOLM14): 9.78% | %S (MOLM14): 35.7% | %G0–G1 (MV4-11 [2]): 60.48% | %G2–M (MV4-11 [2]): 7% | %S (MV4-11 [2]): 32.52%

NC1(c2ccc(-c3nc4ccn5c(=O)[nH]nc5c4cc3-c3ccccc3)cc2)CCC1 [MK2206]
GI50 (MOLM-13 (FLT3-ITD/wt); [7]): 100 nM | GI50 (MOLM-14 (FLT3-ITD/wt); [8]): 320 nM | GI50 (MV4-11 (FLT3-ITD); [9]): 5200 nM | GI50 (NB4 (FLT3-wt); Homo sapiens): 210 nM | GI50 (OCI-AML-3 (FLT3-wt); Homo sapiens): 1400 nM | GI50 (U937 (FLT3-wt); Homo sapiens, U-937, 72 hours): 7200 nM | GI50 (HL-60 (FLT3-wt); Homo sapiens): 160 nM | GI50 (SKM-1 (FLT3-wt); Homo sapiens): 4600 nM | GI50 (PF-382 (FLT3-wt); Homo sapiens): 610 nM | activity at 0.36 µM (MOLM-13; [10]): 59.3% | activity at 0.12 µM (MOLM-14; [10]): 65.5% | activity at 0.12 µM (MV4-11 [1]; [10]): 88.6% | %G0–G1 (MOLM14): 63.9% | %G2–M (MOLM14): 7.3% | %S (MOLM14): 28.81% | %G0–G1 (MV4-11 [2]): 64.92% | %G2–M (MV4-11 [2]): 7.69% | %S (MV4-11 [2]): 27.39% | apoptosis induction (MOLM14, MV4-11 cells): did not induce apoptosis | effect on FLT3 signaling pathway (pFLT3, pSTAT5, c-MYC) [4]: did not affect this signaling pathway

CC(C)NC[C@@H](C(=O)N1CCN(c2ncnc3c2[C@H](C)C[C@H]3O)CC1)c1ccc(Cl)cc1 [GDC0068]
GI50 (MOLM-13 (FLT3-ITD/wt); [7]): 290 nM | GI50 (MOLM-14 (FLT3-ITD/wt); [8]): 850 nM | GI50 (MV4-11 (FLT3-ITD); [9]): 2100 nM | GI50 (NB4 (FLT3-wt); Homo sapiens): 5900 nM | GI50 (OCI-AML-3 (FLT3-wt); Homo sapiens): 1100 nM | GI50 (U937 (FLT3-wt); Homo sapiens, U-937, 72 hours): 590 nM | GI50 (HL-60 (FLT3-wt); Homo sapiens): 310 nM | GI50 (SKM-1 (FLT3-wt); Homo sapiens): > 10000 nM | GI50 (PF-382 (FLT3-wt); Homo sapiens): 440 nM

NC1(C(=O)N[C@@H](CCO)c2ccc(Cl)cc2)CCN(c2ncnc3[nH]ccc23)CC1 [AZD5363]
GI50 (MOLM-13 (FLT3-ITD/wt); [7]): 160 nM | GI50 (MOLM-14 (FLT3-ITD/wt); [8]): 500 nM | GI50 (MV4-11 (FLT3-ITD); [9]): 670 nM | GI50 (NB4 (FLT3-wt); Homo sapiens): 930 nM | GI50 (OCI-AML-3 (FLT3-wt); Homo sapiens): 1200 nM | GI50 (U937 (FLT3-wt); Homo sapiens, U-937, 72 hours): 610 nM | GI50 (HL-60 (FLT3-wt); Homo sapiens): 370 nM | GI50 (SKM-1 (FLT3-wt); Homo sapiens): > 10000 nM | GI50 (PF-382 (FLT3-wt); Homo sapiens): 480 nM

NC1(Cc2ccc(Cl)cc2)CCN(c2ncnc3[nH]ccc23)CC1 [CCT128930]
GI50 (MOLM-13 (FLT3-ITD/wt); [5]): 650 nM | GI50 (MOLM-14 (FLT3-ITD/wt); MOLM-14 (FLT3-ITD/wt), 72 hours, Table 1): 1100 nM | GI50 (MV4-11 (FLT3-ITD); [6]): 1000 nM | GI50 (NB4 (FLT3-wt)): 2500 nM | GI50 (OCI-AML-3 (FLT3-wt)): 2200 nM | GI50 (U937 (FLT3-wt); 72 hours): 4100 nM | GI50 (HL-60 (FLT3-wt)): 1500 nM | GI50 (SKM-1 (FLT3-wt)): 4300 nM | GI50 (PF-382 (FLT3-wt)): 1300 nM
